Reference: PMC11137019, “G protein-specific mechanisms in the serotonin 5-HT2A receptor regulate psychosis-related effects and memory deficits” (Nature Communications, 2024)
Where a name gives a salt, the structure may show the parent alone.

Target: T1, 5-HT2AR (CHO-5-HT2A cell membranes) (Homo sapiens, UniProt P28223)
T1 construct: gene HTR2A; membranes from CHO-5-HT2A cell line prepared in the authors' laboratory
Assay: [3H]ketanserin competition binding, CHO-5-HT2A membranes
Details: […] °C, […] min, orthosteric site

T1 sequence (P28223 whole entry): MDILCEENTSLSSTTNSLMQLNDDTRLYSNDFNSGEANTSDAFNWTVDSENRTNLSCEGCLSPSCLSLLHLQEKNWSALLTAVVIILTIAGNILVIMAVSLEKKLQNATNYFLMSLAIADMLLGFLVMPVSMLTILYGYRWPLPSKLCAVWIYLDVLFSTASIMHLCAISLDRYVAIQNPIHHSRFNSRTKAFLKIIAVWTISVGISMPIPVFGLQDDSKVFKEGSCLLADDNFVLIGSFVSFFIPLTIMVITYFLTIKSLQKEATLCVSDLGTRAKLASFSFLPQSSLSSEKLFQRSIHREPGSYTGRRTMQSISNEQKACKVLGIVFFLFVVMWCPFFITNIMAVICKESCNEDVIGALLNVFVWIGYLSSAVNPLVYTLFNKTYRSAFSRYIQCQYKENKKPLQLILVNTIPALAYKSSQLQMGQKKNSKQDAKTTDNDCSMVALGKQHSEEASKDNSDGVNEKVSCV

In the case of `NCCc1c[nH]c2ccc(-c3ccc4c(c3)OCCO4)cc12` [OTV1, 2-[5-(2,3-dihydro-1,4-benzodioxin-6-yl)-1H-indol-3-yl]ethan-1-amine Hydrochloride], the pKi is reported as “Ligand binding affinities (pKi) are indicated for Nitro-I, Met-I, OTV1 and OTV2”.
